Laboratory results: a compilation of properties of binary mixtures (doi:10.1016/j.jct.2016.12.008)

Test: xn = mol fraction of the nth substance listed
Conditions: 100 kPa

O + CC[n+]1ccn(C)c1.N#C[S-]
x1 = 1
Conditions	viscosity [mPa·s]
288.15 K	1.13
298.15 K	0.89
308.15 K	0.72
313.15 K	0.65
318.15 K	0.6

CC[n+]1ccn(C)c1.N#C[S-] + O
viscosity [mPa·s]
Conditions	288.15 K	293.15 K	298.15 K	303.15 K	308.15 K	313.15 K	318.15 K
x2 = 0	34.24	27.9	22.68	19.09	–	14.18	–
x2 = 0.1006	27.45	–	18.74	16.03	13.87	–	10.71
x2 = 0.1948	21.99	18.63	15.93	–	–	10.58	–
x2 = 0.3026	18.6	15.74	13.44	11.61	10.14	8.93	7.94
x2 = 0.4011	15.07	12.81	10.99	–	8.39	7.43	6.62
x2 = 0.4979	12.4	10.43	8.94	7.77	6.83	6.07	5.43
x2 = 0.6043	9.2	7.9	6.85	6.01	–	4.74	4.26
x2 = 0.6887	7.15	6.17	5.38	–	–	3.74	3.35
x2 = 0.7981	4.7	–	–	–	–	–	–
x2 = 0.9105	2.53	–	2.02	1.79	1.6	–	1.31
x2 = 0.9443	–	1.76	1.57	1.39	1.25	1.13	1.03
x2 = 0.9506	1.86	1.67	1.49	1.32	1.19	–	0.98
